Entries after “also recorded” stand apart in the source; their conditions may differ. Read-outs that look alike come from different tables or passages of the source.
Experiments:
[1] = system: secondary alcohol dehydrogenase; experiment: Activity of purified yeast-derived secondary alcohol dehydrogenase; assay type: biochemical, Pichia sp. NRRL Y-11,328; details: for inhibition of secondary alcohol dehydrogenase activity (in words): primary alcohols tested at 10^-3 M
[2] = system: secondary alcohol dehydrogenase (SADH); experiment: Activity of purified secondary alcohol dehydrogenase (inhibition, substrate specificity, Km); assay type: biochemical, Pseudomonas sp. ATCC 21439; details: for % inhibition of SADH activity: each inhibitor at a final concentration of 1 mM, spectrofluorometric; for relative percent rate of oxidation: 2-butanol = 100%
Method: Secondary alcohol dehydrogenase (SADH) from an obligate methanol utilizer, Pseudomonas sp. ATCC 21439 was purified as follows. […] 0.05 M sodium phosphate buffer, pH 7.0 with 0.5 mM dithiothretol (buffer A) and were disrupted sonically (5×1 min.). The crude extract was separated by centrifugation. The crude extract was heat-treated at 50° C. in a water bath for 10 minutes. The resulting precipitate was removed by centrifugation. To the supernatant solution, 25 ml of protamine sulfate solution (2% solution in 0.1 M Tris base) was added dropwise with continuous stirring. After standing for 30 minutes, the extract was centrifuged. The supernatant solution was fractionated with solid ammonium sulfate. The material precipitating between 30 and 60% saturation was collected and was dialized overnight against buffer A. The The dialized material was applied to a DEAE-cellulose column (3 cm by 35 cm) that had been equilibrated with buffer A. The secondary alcohol dehydrogenase activity was eluted in the void volume. This DEAE-cellulose eluate was concentrated by ammonium sulfate fractionation. Material precipitating between 30 and 50% ammonium sulfate saturation was collected by centrifugation and dialyzed overnight against A. This fraction was further washed and filtered through an Amicon unit with XM 50 membrane. The concentrated fraction (6 ml) inside the Amicon unit was applied to an Affi-Gel Blue column (0.8 cm×18 cm) which had been equilibrated with buffer A for affinity chromatography. The column was washed overnight with buffer A (0.18 ml./min.) and then was eluted with buffer A containing 5 mM NAD. Each 1 ml. fraction was collected.
The purified secondary alcohol dehydrogenase enzyme (SADH) may be used directly for converting C3 -C6 secondary alcohols to the corresponding methyl ketones by the procedures described above; however, a source of NAD^+ must be added to the reaction medium. One can determine the NAD-linked secondary alcohol dehydrogenase activity with a fluorescence spectrophotometer (Perkin Elmer, Model MPF 44A) by following the formation of reduced NAD (Ex 340 nm, Em 460 nm). The assay system (3 ml.) will typically contain: sodium phosphate buffer pH 7.0, 150 μmol; NAD 1.0 μmol; a given amount of enzyme preparation; and 20 μmol secondary alcohol. The reaction is started by the addition of secondary alcohol. One unit of SADH enzyme activity represents the reduction of one nmole NAD per minute.
The effect of metal-chelating agents and thioreagents on the activity of the purified SADH enzyme were studied. […] The possibility of ethanol or n-propanol as an inhibitor was studied.

[3] = system: cell suspensions of C1-utilizers; experiment: Production of 2-butanone from 2-butanol / sec-alcohol oxidation by cell suspensions of the strains tested; assay type: cell-based; details: for inhibition of production of 2-butanone from 2-butanol (in words): cell suspensions of the strains tested
From the text: The substrate specificity for the oxidation of C3 -C6 secondary alcohols by the strains of C1 -utilizers was studied.

[4] = system: cell-free particulate fraction of methane-grown methylotrophs; experiment: Conversion of n-alkanes to sec. alcohols by cell-free particulate fractions: inhibitors and electron donors; assay type: biochemical
From the text: The conditions for preparing the cell suspensions or the cell-free particulate fractions from methane-grown methylotroph microorganisms is the same as described above.

[5] = system: Methylosinus trichosporium OB3b NRRL B-11,196; experiment: Conversion of n-alkanes to oxidation products by cell suspensions; assay type: cell-based; details: methane-grown cell suspension, pH 7.0
Method: (§1) ^(a) Cell-suspensions of methanegrown methylotroph microorganisms
(§2) indicated in 0.15 M phosphate buffer, pH 7.0 incubated in the alkanes as
(§3) indicated at 3° C. The oxidation products were determined by g.l.c

[6] = system: Methylococcus capsulatus CRL M1 NRRL B-11,219; experiment: as above; assay type: cell-based; details: methane-grown cell suspension, pH 7.0
Method: as §1, §2, §3

[7] = system: cell-free secondary alcohol dehydrogenase (SADH) system; experiment: Cofactor requirement of cell-free soluble extracts oxidizing 2-butanol; assay type: biochemical
Method: To prepare the cell-free secondary alcohol dehydrogenase (SADH) system, the washed cells were disrupted with a Wave Energy Ultrasonic Oscillator, Model W201 (Wave Energy System, Inc., Newtown, Pa.) and centrifuged at 20,000× g. for 30 minutes. […] The enzyme activity was measured with a fluorescence spectrophotometer (Perkin Elmer, Model MPF 44A) by following the formation of reduced NAD (EX 340 nm, Em 460 nm). The formation of reduced NAD was also followed with an absorption spectrophotometer at 340 nm. The assay system (3 ml.) contained: potassium phosphate buffer pH 7.0; 150 μmol.; NAD 1 μmol.; a given amount of enzyme preparation; and secondary alcohol 10 μmol. The reaction was started by the addition of substrate. One unit of enzyme activity represents the reduction of one μmole NAD per minute. Protein concentrations were determined by the Lowry method (J. Biol. Chem., 193: 255-275 (1951)).

CC(O)CO (stereo not drawn) [1,2-propandiol]
substrate specificity of purified yeast secondary alcohol dehydrogenase (in words) ([1]; spectrophotometric): not oxidized

c1cnc2c(c1)ccc1cccnc12 [1,10-phenanthroline, reference compound]
inhibition of secondary alcohol dehydrogenase activity (in words) [1]: strongly inhibited
% inhibition of SADH activity [2]: 95%
inhibition of production of 2-butanone from 2-butanol (in words) [3]: inhibited
inhibition of conversion of n-alkanes to sec. alcohols (in words) [4]: inhibited

CCC(C)=O [2-Butanone, 2-butanone]
inhibition of SADH activity (in words) ([2]; purified SADH): inhibited
product inhibition of 2-butanone production ([3]; exogenously supplied 2-butanone (8 μmoles) with viable cell suspensions): No product (2-butanone) inhibition; also recorded: did not inhibit

CCCCCC(C)O (stereo not drawn) [2-heptanol]
substrate specificity of purified yeast secondary alcohol dehydrogenase (in words) ([1]; spectrophotometric): not oxidized
substrate specificity: rate of oxidation of secondary alcohols (in words) ([3]; cell suspensions of C1-utilizers): oxidized at a much slower rate

CCCCCCC(C)O (stereo not drawn) [2-octanol]
substrate specificity of purified yeast secondary alcohol dehydrogenase (in words) ([1]; spectrophotometric): not oxidized

O=C(O)c1cc(SSc2ccc([N+](=O)[O-])c(C(=O)O)c2)ccc1[N+](=O)[O-] [5,5'-dithiobis(2-nitrobenzoic acid), reference compound]
% inhibition of SADH activity [2]: 100%
inhibition of SADH activity (in words) ([2]; purified SADH): inhibited

Oc1cccc2cccnc12 [8-hydroxyquinoline]
inhibition of conversion of n-alkanes to sec. alcohols (in words) [4]: inhibited

[Co+2] [Co^++, reference compound]
% inhibition of SADH activity [2]: 0%

CC [Ethane]
Conversion Rate to product Ethanol [5]: 1.3 μmoles/hr./mg./protein
Conversion Rate to product Ethanol [6]: 2.0 μmoles/hr./mg./protein

C [Methane]
Conversion Rate to product Methanol ([5]; […] phosphate buffer): 1.5 μmoles/hr./mg./protein
Conversion Rate to product Methanol [6]: 2.5 μmoles/hr./mg./protein

[Mg+2] [Mg^++, reference compound]
% inhibition of SADH activity [2]: 0%

[Mn+2] [Mn^++, reference compound]
% inhibition of SADH activity [2]: 0%

CCN1C(=O)C=CC1=O [N-ethylmalemide, N-ethylmaleimide, reference compound]
% inhibition of SADH activity [2]: 6%
inhibition of SADH activity (in words) ([2]; purified SADH): not inhibited

NC(=O)C1=CN([C@@H]2O[C@H](COP(=O)(O)OP(=O)(O)OC[C@H]3O[C@@H](n4cnc5c(N)ncnc54)[C@H](OP(=O)(O)O)[C@@H]3O)[C@@H](O)[C@H]2O)C=CC1 [NAD(P)H]
effectiveness as cofactor for oxidation of 2-butanol [7]: not effective

NC(=O)C1=CN([C@@H]2O[C@H](COP(=O)(O)OP(=O)(O)OC[C@H]3O[C@@H](n4cnc5c(N)ncnc54)[C@H](O)[C@@H]3O)[C@@H](O)[C@H]2O)C=CC1 [NADH, reduced nicotinamide adenine dinucleotide]
use as electron donor for hydroxylation of n-alkanes [4]: requires

NC(=O)C1=CN([C@@H]2O[C@H](COP(=O)(O)OP(=O)(O)OC[C@H]3O[C@@H](n4cnc5c(N)ncnc54)[C@H](OP(=O)(O)O)[C@@H]3O)[C@@H](O)[C@H]2O)C=CC1 [NADPH, reduced nicotinamide adenine dinucleotide phosphate]
use as electron donor for hydroxylation of n-alkanes [4]: could also be utilized as an electron donor

[N-]=[N+]=[N-] [Sodium azide, reference compound]
% inhibition of SADH activity [2]: 10%

NC(N)=S [Thiourea, reference compound]
% inhibition of SADH activity [2]: 0%
inhibition of SADH activity (in words) ([2]; purified SADH): not inhibited
inhibition of production of 2-butanone from 2-butanol (in words) [3]: not inhibited
inhibition of conversion of n-alkanes to sec. alcohols (in words) [4]: inhibited

[Zn+2] [Zn^++, reference compound]
stimulation of SADH activity by exogenous zinc [2]: did not stimulate
% inhibition of SADH activity [2]: 0%

CC=O [acetaldehyde]
substrate specificity of purified SADH (in words) [2]: lower rate
relative percent rate of oxidation [2]: 4%

O=Cc1ccccc1 [benzaldehyde]
substrate specificity of purified SADH (in words) [2]: not oxidized

CCCCO [butan-1-ol]
substrate specificity of purified yeast secondary alcohol dehydrogenase (in words) [1]: not oxidized

CCC(O)CO (stereo not drawn) [butane 1,2-diol]
substrate specificity of purified yeast secondary alcohol dehydrogenase (in words) ([1]; spectrophotometric): not oxidized
substrate specificity of purified SADH (in words) [2]: not oxidized

CC(O)CCO (stereo not drawn) [butane 1,3-diol]
substrate specificity of purified yeast secondary alcohol dehydrogenase (in words) ([1]; spectrophotometric): not oxidized
substrate specificity of purified SADH (in words) [2]: lower rate
relative percent rate of oxidation [2]: 2%

CC(O)C(C)O (stereo not drawn) [butane 2,3-diol]
substrate specificity of purified SADH (in words) [2]: lower rate
relative percent rate of oxidation [2]: 2.5%

O=S(=O)([O-])[O-].[Cu+2] [cupric sulfate, reference compound]
inhibition of secondary alcohol dehydrogenase activity (in words) [1]: inhibited

[Cu+2] [cupric, reference compound]
% inhibition of SADH activity [2]: 25%

OC1CCCCC1 [cyclohexanol]
substrate specificity of purified SADH (in words) [2]: lower rate
relative percent rate of oxidation [2]: 4%

CCO [ethanol]
substrate specificity of purified yeast secondary alcohol dehydrogenase (in words) [1]: not oxidized
inhibition of SADH activity (in words) [2]: did not inhibit

[Fe+3] [ferric, reference compound]
% inhibition of SADH activity [2]: 35%

[Fe+2] [ferrous, reference compound]
% inhibition of SADH activity [2]: 50%

C=O [formaldehyde]
substrate specificity of purified SADH (in words) [2]: not oxidized

c1c[nH]cn1 [imidiazole, reference compound]
inhibition of secondary alcohol dehydrogenase activity (in words) [1]: strongly inhibited

O=C(O)CI [iodoacetic acid, reference compound]
inhibition of SADH activity (in words) [2]: not inhibited

CC(C)CO [isobutanol]
substrate specificity of purified SADH (in words) [2]: not oxidized

N#C[S][Hg][S]C#N [mercuric thiocyanate, reference compound]
inhibition of secondary alcohol dehydrogenase activity (in words) [1]: inhibited

CO [methanol]
substrate specificity of purified yeast secondary alcohol dehydrogenase (in words) ([1]; spectrophotometric): not oxidized

CCCO [n-propanol]
substrate specificity of purified yeast secondary alcohol dehydrogenase (in words) [1]: not oxidized
inhibition of SADH activity (in words) [2]: did not inhibit

[Ni+2] [nickel, reference compound]
% inhibition of SADH activity [2]: 20%

O=C(O)c1cc[c]([Hg+])cc1.[OH-] [p-hydroxymercuribenzoate, reference compound]
inhibition of secondary alcohol dehydrogenase activity (in words) [1]: strongly inhibited
% inhibition of SADH activity [2]: 100%

CCCCCO [pentan-1-ol]
substrate specificity of purified yeast secondary alcohol dehydrogenase (in words) ([1]; spectrophotometric): not oxidized

Oc1ccccc1 [phenol]
substrate specificity of purified SADH (in words) [2]: not oxidized

CCCO [propanol]
substrate specificity of purified SADH (in words) [2]: lower rate
relative percent rate of oxidation [2]: 2%

C=CC [propylene]
inhibition of conversion of n-alkanes to sec. alcohols (in words) [4]: inhibited
inhibition of conversion of n-alkanes to sec. alcohols (in words) ([4]; listed as Propylene): inhibit

O=[N+]([O-])[O-].[Ag+] [silver nitrate, reference compound]
inhibition of secondary alcohol dehydrogenase activity (in words) [1]: inhibited

O=C(O)CCC(=O)O [succinic acid]
substrate specificity of purified SADH (in words) [2]: not oxidized

NNC(N)=S [thiosemicarbazide]
inhibition of conversion of n-alkanes to sec. alcohols (in words) [4]: inhibited

c1ccc(-c2ccccn2)nc1 [α,α-bipyridyl, reference compound]
% inhibition of SADH activity [2]: 70%
inhibition of production of 2-butanone from 2-butanol (in words) [3]: inhibited
inhibition of conversion of n-alkanes to sec. alcohols (in words) [4]: inhibited

cytochrome c [reference compound]
ability to act as electron acceptor/carrier ([1]; purified enzyme): could not act as electron carrier

From patent publication US4268630A, “Microbiological production of ketones from C3 -C6 alkanes” (priority 1979, dated 1981)
